# Experimental data taken from paper PMC9090415, “Discovery of small molecule inhibitors of Plasmodium falciparum apicoplast DNA polymerase” (Journal of Enzyme Inhibition and Medicinal Chemistry, 2022).
# Target: T1, bacteriophage T4 DNA polymerase (Enterobacteria phage T4, UniProt P04415)
# T1 construct: made in house
# T1 sequence (P04415 1-898): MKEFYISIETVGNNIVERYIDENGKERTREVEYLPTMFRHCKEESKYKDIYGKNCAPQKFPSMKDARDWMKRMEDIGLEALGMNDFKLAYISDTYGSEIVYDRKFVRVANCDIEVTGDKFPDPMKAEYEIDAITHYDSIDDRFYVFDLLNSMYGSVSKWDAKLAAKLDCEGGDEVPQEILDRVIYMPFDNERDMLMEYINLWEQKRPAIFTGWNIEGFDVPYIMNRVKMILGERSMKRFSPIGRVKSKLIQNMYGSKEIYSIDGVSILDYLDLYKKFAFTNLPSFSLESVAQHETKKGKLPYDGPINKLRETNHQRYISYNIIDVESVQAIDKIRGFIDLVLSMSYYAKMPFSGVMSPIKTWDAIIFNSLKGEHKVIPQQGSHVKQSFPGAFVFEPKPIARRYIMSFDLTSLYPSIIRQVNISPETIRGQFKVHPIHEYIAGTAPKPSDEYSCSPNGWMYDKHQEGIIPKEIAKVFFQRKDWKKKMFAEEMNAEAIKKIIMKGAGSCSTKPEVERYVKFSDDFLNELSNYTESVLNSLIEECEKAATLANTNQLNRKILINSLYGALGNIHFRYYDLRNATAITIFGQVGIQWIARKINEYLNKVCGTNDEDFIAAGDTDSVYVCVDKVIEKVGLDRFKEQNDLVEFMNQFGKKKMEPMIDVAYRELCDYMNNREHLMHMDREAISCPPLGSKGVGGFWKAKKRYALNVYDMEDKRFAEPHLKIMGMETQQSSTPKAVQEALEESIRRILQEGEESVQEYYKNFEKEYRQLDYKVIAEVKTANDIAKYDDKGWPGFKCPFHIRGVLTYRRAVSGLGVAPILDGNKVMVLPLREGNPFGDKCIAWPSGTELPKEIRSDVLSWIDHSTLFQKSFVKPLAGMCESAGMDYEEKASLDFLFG
# Experiment: Counter-screen against bacteriophage T4 DNA polymerase
# Assay type: biochemical
# Details: for % inhibition T4 10' 2.5 / % inhibition T4 10' 5 / % inhibition T4 10' 10 / % inhibition T4 10' 20 / % inhibition T4 10' 40 / % inhibition T4 10' 80: read at 10'
# Summary of the method: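 IC50 values come from dose-response testing of each compound against T4 DNA polymerase. This B-family polymerase was purified in-house and used as the counter-screen.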
compound,measurement,setting,value
CCOC(=O)C1=C2c3cc(OC)c(OC)cc3CC(C)(C)N2C(=O)C1=O [KU0193659],% inhibition T4 10',"DRC-2, concentration 2.5",9%
same,% inhibition T4 10',"DRC-2, concentration 5",6.54%
same,% inhibition T4 10',"DRC-2, concentration 10",23%
same,% inhibition T4 10',"DRC-2, concentration 20",29%
same,% inhibition T4 10',"DRC-2, concentration 40",38%
same,% inhibition T4 10',"DRC-2, concentration 80",45%
same,% inhibition T4 40',"DRC-2, concentration 2.5",9%
same,% inhibition T4 40',"DRC-2, concentration 5",6.54%
same,% inhibition T4 40',"DRC-2, concentration 10",23%
same,% inhibition T4 40',"DRC-2, concentration 20",29%
same,% inhibition T4 40',"DRC-2, concentration 40",38%
same,% inhibition T4 40',"DRC-2, concentration 80",45%
same,% inhibition T4 90',"DRC-2, concentration 2.5",8%
same,% inhibition T4 90',"DRC-2, concentration 40",37%
same,% inhibition T4 90',"DRC-2, concentration 80",44%
same,% inhibition T4 180',"DRC-2, concentration 2.5",9%
same,% inhibition T4 180',"DRC-2, concentration 5",8%
same,% inhibition T4 180',"DRC-2, concentration 40",37%
same,% inhibition T4 180',"DRC-2, concentration 80",44%
N#Cc1c(O)nc(N2CCCCC2)nc1-c1ccc2c(c1)OCO2 [KU0083146],% inhibition T4 10' 2.5,"DRC-1, concentration 2.5",-1.681%
same,% inhibition T4 10' 5,"DRC-1, concentration 5",-6.153%
same,% inhibition T4 10' 10,"DRC-1, concentration 10",-0.208%
same,% inhibition T4 10' 20,"DRC-1, concentration 20",-4.89%
same,% inhibition T4 10' 40,"DRC-1, concentration 40",2.23%
same,% inhibition T4 10' 80,"DRC-1, concentration 80",27.8578%
same,% inhibition T4 70' 2.5,"DRC-1, read at 70', concentration 2.5",-2.1541%
same,% inhibition T4 70' 5,"DRC-1, read at 70', concentration 5",-7.277%
same,% inhibition T4 70' 10,"DRC-1, read at 70', concentration 10",-0.8576%
same,% inhibition T4 70' 20,"DRC-1, read at 70', concentration 20",-6.699%
same,% inhibition T4 70' 40,"DRC-1, read at 70', concentration 40",-0.3941%
same,% inhibition T4 70' 80,"DRC-1, read at 70', concentration 80",25.8853%
same,% inhibition T4 130' 2.5,"DRC-1, read at 130', concentration 2.5",-4.596%
same,% inhibition T4 130' 5,"DRC-1, read at 130', concentration 5",-9.967%
same,% inhibition T4 130' 10,"DRC-1, read at 130', concentration 10",-3.465%
same,% inhibition T4 130' 20,"DRC-1, read at 130', concentration 20",-8.629%
same,% inhibition T4 130' 40,"DRC-1, read at 130', concentration 40",-2.723%
same,% inhibition T4 130' 80,"DRC-1, read at 130', concentration 80",26.2784%
same,% inhibition T4 10' 2.5,"DRC-2, concentration 2.5",12%
same,% inhibition T4 10' 5,"DRC-2, concentration 5",9%
same,% inhibition T4 10' 10,"DRC-2, concentration 10",-0.482%
same,% inhibition T4 10' 20,"DRC-2, concentration 20",-17%
same,% inhibition T4 10' 40,"DRC-2, concentration 40",-12%
same,% inhibition T4 10' 80,"DRC-2, concentration 80",-1.89%
same,% inhibition T4 40' 2.5,"DRC-2, read at 40', concentration 2.5",13%
same,% inhibition T4 40' 5,"DRC-2, read at 40', concentration 5",10%
same,% inhibition T4 40' 10,"DRC-2, read at 40', concentration 10",2%
same,% inhibition T4 40' 20,"DRC-2, read at 40', concentration 20",-13%
same,% inhibition T4 40' 40,"DRC-2, read at 40', concentration 40",-9%
same,% inhibition T4 40' 80,"DRC-2, read at 40', concentration 80",3.39%
same,% inhibition T4 90' 2.5,"DRC-2, read at 90', concentration 2.5",13%
same,% inhibition T4 90' 5,"DRC-2, read at 90', concentration 5",12%
same,% inhibition T4 90' 10,"DRC-2, read at 90', concentration 10",2.84%
same,% inhibition T4 90' 20,"DRC-2, read at 90', concentration 20",-10%
same,% inhibition T4 90' 40,"DRC-2, read at 90', concentration 40",-5.54%
same,% inhibition T4 90' 80,"DRC-2, read at 90', concentration 80",3.63%
same,% inhibition T4 180' 2.5,"DRC-2, read at 180', concentration 2.5",12%
same,% inhibition T4 180' 5,"DRC-2, read at 180', concentration 5",11%
same,% inhibition T4 180' 10,"DRC-2, read at 180', concentration 10",4%
same,% inhibition T4 180' 20,"DRC-2, read at 180', concentration 20",-10%
same,% inhibition T4 180' 40,"DRC-2, read at 180', concentration 40",-6.49%
same,% inhibition T4 180' 80,"DRC-2, read at 180', concentration 80",2.15%
"Cc1ccc(C)n1-c1ccc(C(=O)NNC(=O)c2ccc3nccnc3c2)cc1 [Molecule 53, O=C(c1ccc(cc1)n1c(C)ccc1C)NNC(=O)c1ccc2c(c1)nccn2]",% inhibition T4 10',"DRC-2, concentration 2.5",15%
same,% inhibition T4 10',"DRC-2, concentration 5",24%
same,% inhibition T4 10',"DRC-2, concentration 10",29%
same,% inhibition T4 10',"DRC-2, concentration 20",31%
same,% inhibition T4 10',"DRC-2, concentration 40",29%
same,% inhibition T4 10',"DRC-2, concentration 80",38%
same,% inhibition T4 40',"DRC-2, concentration 2.5",15%
same,% inhibition T4 40',"DRC-2, concentration 5",24%
same,% inhibition T4 40',"DRC-2, concentration 10",29%
same,% inhibition T4 40',"DRC-2, concentration 20",31%
same,% inhibition T4 40',"DRC-2, concentration 40",29%
same,% inhibition T4 40',"DRC-2, concentration 80",38%
same,% inhibition T4 90',"DRC-2, concentration 5",22%
same,% inhibition T4 90',"DRC-2, concentration 20",29%
same,% inhibition T4 90',"DRC-2, concentration 40",29%
same,% inhibition T4 180',"DRC-2, concentration 10",22%
same,% inhibition T4 180',"DRC-2, concentration 20",24%
"O=C(NNC(=O)c1ccc(Cl)cc1)C(=O)NNC(=O)c1ccc(Cl)cc1 [Molecule 25, O=C(C(=O)NNC(=O)c1ccc(cc1)Cl)NNC(=O)c1ccc(cc1)Cl]",% inhibition T4 10',"DRC-2, concentration 80",-22%
same,% inhibition T4 40',"DRC-2, concentration 5",-13%
same,% inhibition T4 40',"DRC-2, concentration 20",-23%
same,% inhibition T4 40',"DRC-2, concentration 40",-17%
same,% inhibition T4 90',"DRC-2, concentration 5",-13%
same,% inhibition T4 90',"DRC-2, concentration 20",-22%
same,% inhibition T4 180',"DRC-2, concentration 5",-17%
same,% inhibition T4 180',"DRC-2, concentration 20",-23%
same,% inhibition T4 180',"DRC-2, concentration 40",-17%
